From US20250018049A1, “COMPOUNDS FOR DEGRADING CYCLIN-DEPENDENT KINASE 2 VIA UBIQUITIN PROTEOSOME PATHWAY” (NIKANG THERAPEUTICS, INC., priority 2020, published 2025)

Assays:
Format in all cases: cell-based
[1] = molecular target: T1, CDK2 (Homo sapiens, UniProt P24941); experiment: Phospho-Rb HTRF measurement in OVCAR3 cells (inhibition of CDK2); parameters: High-Throughput Measurement of Cellular Endogenous CDK2; endogenous in cells; host or cells: OVCAR3; settings: pRB(S807/811) assay, 24 h compound treatment
Protocol: Phosphorylation of RB protein at S780 and S807/811 were measured using HTRF phospho-RB cellular kits (Cat #64RBS780PEG and 64RBS807PEG) from Cisbio.
On Day 1, OVCAR3 or KYSE520 cells were seeded into 96-well tissue-culture treated plates at 20,000 cells/well in 200 μL and incubated overnight at 37° C. in CO2 atmosphere. On Day 2, the cells were treated with test compounds at concentrations from 0.3 to 10,000 nM using HP D300 digital dispenser. Twenty-four hours after compound treatment, cell culture media was removed by flicking the plate and tapping the plate against clean paper towel. Immediately 30 μL 1× lysis buffer was supplemented from the kit and the plate was incubated at room temperature on shaker for 30 min. After homogenization by pipetting up and down, 8 μL cell lysate from 96-well cell culture plate was transferred to 384-well small volume white detection plate. 2 μL premixed detection solution was added and the plate was covered with sealer. To prepare the detection solution, d2 conjugated-phospho-RB antibody and Eu-cryptate conjugated phosphor-RB antibody were diluted into detection buffer following manufacturer's instruction. Detection plates were incubated for 4 h at room temperature and read on ClarioStar (BMG Labtech) in TR-FRET mode (665 nM and 620 nM). The TR-FRET ratio (665 nM/620 nM) was plotted against the compound concentration and normalized to DMSO controls. Half maximal inhibition concentration (IC50) values are calculated with a four-parameter logistic fit using GraphPad Prism (version 8; La Jolla, CA).

[2] = molecular target: T1, CDK2; experiment: NanoBRET CDK2 engagement assay; parameters: expressed in transfected cells; settings: OVCAR3 cells with stable CDK2-Luciferase vector, 24 hours treatment
Protocol: OVCAR3 cells with stable transfection of CDK2-Luciferase vector were seeded into 96-well plate at a density of 20,000 cells per well, 50 μL Opti-MEM medium supplemented with 1% FBS. Following morning, cells were treated with compounds of the disclosure, with starting concentration at 3 μM and ½ log dilution down to 0.3 nM for 24 hours at 37° C. DMSO treatment serves as control. Compound engagement was then measured using NanoBRE™ Kinase Kit from Promega (Part Number: CS1810C122, NanoBRET™ TE Kinase Kit #10, 1K) following manufacturer's instruction. For 24 hours treatment, tracer was added only for the last 2 hours. Briefly, 2.5 μL of complete 20× NanoBRET Tracer was added to the cells in suspension. Immediately prior to BRET measurements, prepare 3× Complete NanoBRET® Nano-Glo® Substrate in Opti-MEM without serum and phenol red. Without any delay, 25 μL per well of 3× Complete NanoBRET™ Nano-Glo® Substrate for a 96-well plate was added and mixed well. Signal was then read on a CLARIOstar® plate reader (measure donor emission (e.g., 450 nm) and acceptor emission (e.g., 610 nm or 630 nm) using a NanoBRET™-compatible luminometer. Target engagement was calculated with DMSO treatment as 100% signal, and IC50 was calculated by GraphPad Prism 9.

[3] = molecular target: T1, CDK2; experiment: CDK2 HTRF assay (cellular endogenous CDK2 level); parameters: High-Throughput Measurement of Cellular Endogenous CDK2; endogenous in cells; host or cells: OVCAR3; settings: OVCAR-3; OVCAR3 cells, 24 hours, 0.3 to 10,000 nM; read-out: max degradation of CDK2
Protocol: Effects of compounds on cellular CDK2 level can be monitored by a high-throughput HTRF assay or traditional Western Blot assay.
To determine half maximal degradation concentration (DC50) values of compounds, cellular CDK2 level was measured in 96-well format using HTRF total CDK2 cellular kit (Cat #64CDK2TPEG) from Cisbio.
On Day 1, OVCAR3 cells were seeded into 96-well tissue-culture treated plates at 20,000 cells/well in 200 μL and incubated overnight at 37° C. in CO2 atmosphere. On Day 2 cells were treated with compounds at concentration ranging from 0.3 to 10,000 nM using HP D300 digital dispenser. 24 hours after compound treatment, cell culture media was removed by flicking the plate and tapping the plate against clean paper towel. Immediately 30 μL 1× lysis buffer was supplemented from the kit and the plate was incubated at room temperature on shaker for 30 min. After homogenization by pipetting up and down, 8 μL cell lysate from 96-well cell culture plate was transferred to 384-well small volume white detection plate. 2 μL premixed detection solution was added and the plate was covered with sealer. To prepare the detection solution, d2 conjugated-CDK2 antibody and Eu-cryptate conjugated CDK2 antibody were diluted into detection buffer following manufacturer's instruction. Detection plates were incubated overnight at room temperature and read on ClarioStar (BMG Labtech) in TR-FRET mode (665 nM and 620 nM). The TR-FRET ratio (665 nM/620 nM) was plotted against the compound concentration and normalized to DMSO controls. Half maximal degradation concentration (DC50) values were calculated with a four-parameter logistic fit using GraphPad Prism (version 8; La Jolla, CA). FIG. 1 provides a dose-response curve of Compound 1 in Compound Table I in cellular CDK2 HTRF assay. IC50 in FIG. 1 is the same as DC50. Compounds 1, 13, 16, 22, 23, 28, 34, 35, 36, 37, 38, 39, 42, 48, 50, 51, 53, 54, 55, 56, 57, 58, 59, 60, 61, 62, 63, 65, 66, 68, 69, 70 were tested and max degradation of CDK2 observed was from about 35% to about 90%.

| Compound | IC50 [1] [nM] | IC50 [2] [nM] | Dmax [3] [%] |
| --- | --- | --- | --- |
| CN(CCN(C)S(=O)(=O)N1CCC(Nc2ncc3ccc(=O)n(C4CCCC4)c3n2)CC1)Cc1ccc(N(C)c2cccc3c2C(=O)N(C2CCC(=O)NC2=O)C3=O)cc1 (centres unmarked) [Compound 22, 4-((8-cyclopentyl-7-oxo-7,8-dihydropyrido[2,3-d]-pyrimidin-2-yl)amino)-N-(2-((4-((2-(2,6-dioxopiperidin-3-yl)-1,3-dioxoisoindolin-4-yl)(methyl)amino)benzyl)(methyl)amino)ethyl)-N-methylpiperidine-1-sulfonamide] | 798 | 903 | 35 to 90 |
| O=C1CCC(N2Cc3cc(N4CC5(CN(Cc6cccc(S(=O)(=O)N7CCC(Nc8ncc9ccc(=O)n(C%10CCCC%10)c9n8)CC7)c6)C5)C4)ccc3C2=O)C(=O)N1 (centres unmarked) [Compound 60, 3-(5-(6-(3-((4-((8-cyclopentyl-7-oxo-7,8-dihydro-pyrido[2,3-d]pyrimidin-2-yl)amino)piperidin-1-yl)sulfonyl)benzyl)-2,6-diazaspiro[3.3]heptan-2-yl)-1-oxoisoindolin-2-yl)piperidine-2,6-dione] | 30 | 64.5 | 35 to 90 |
| O=C1CCC(N2Cc3cc(N4CCC(CN5CCN(c6cccc(S(=O)(=O)N7CCC(Nc8ncc9ccc(=O)n(C%10CCCC%10)c9n8)CC7)c6)CC5)CC4)ccc3C2=O)C(=O)N1 (centres unmarked) [Compound 38, 3-(5-(4-((4-(3-((4-((8-cyclopentyl-7-oxo-7,8-dihydropyrido[2,3-d]pyrimidin-2-yl)amino)-piperidin-1-yl)sulfonyl)phenyl)piperazin-1-yl)-methyl)piperidin-1-yl)-1-oxoisoindolin-2-yl)-piperidine-2,6-dione] | 11.1 | 42.3 | 35 to 90 |
| O=C1CCC(N2Cc3cc(N4CCN(Cc5cccc(S(=O)(=O)N6CCC(Nc7ncc8ccc(=O)n(C9CCCC9)c8n7)CC6)c5)CC4)c(F)cc3C2=O)C(=O)N1 (centres unmarked) [Compound 42, 3-(5-(4-(3-((4-((8-cyclopentyl-7-oxo-7,8-dihydropyrido[2,3-d]pyrimidin-2-yl)amino)-piperidin-1-yl)sulfonyl)benzyl)piperazin-1-yl)-6-fluoro-1-oxoisoindolin-2-yl)piperidine-2,6-dione] | 24.7 | 297 | 35 to 90 |
| O=C(COc1cccc2c1C(=O)N(C1CCC(=O)NC1=O)C2=O)NCCOCCN1CCN(S(=O)(=O)N2CCC(Nc3ncc4ccc(=O)n(C5CCCC5)c4n3)CC2)CC1 (centres unmarked) [compound 3, N-(2-(2-(4-((4-((8-cyclopentyl-7-oxo-7,8-dihydropyrido[2,3-d]pyrimidin-2-yl)amino)-piperidin-1-yl)sulfonyl)piperazin-1-yl)-ethoxy)ethyl)-2-((2-(2,6-dioxopiperidin-3-yl)-1,3-dioxoisoindolin-4-yl)oxy)acetamide] | 2670 | 3040 |  |
| CN(C1CCN(Cc2cccc3c2n(C)c(=O)n3C2CCC(=O)NC2=O)CC1)S(=O)(=O)N1CCC(Nc2ncc3ccc(=O)n(C4CCCC4)c3n2)CC1 (centres unmarked) [Compound 20, 4-((8-cyclopentyl-7-oxo-7,8-dihydropyrido[2,3-d]pyrimidin-2-yl)amino)-N-(1-((1-(2,6-dioxo-piperidin-3-yl)-3-methyl-2-oxo-2,3-dihydro-1H-benzo[d]imidazol-4-yl)methyl)piperidin-4-yl)-N-methylpiperidine-1-sulfonamide] | 1170 | 127 |  |
| Cn1c(=O)n(C2CCC(=O)NC2=O)c2cccc(C3CN(Cc4cccc(S(=O)(=O)N5CCC(Nc6ncc7ccc(=O)n(C8CCCC8)c7n6)CC5)c4)C3)c21 (centres unmarked) [Compound 40, 3-(4-(1-(3-((4-((8-cyclopentyl-7-oxo-7,8-dihydropyrido[2,3-d]pyrimidin-2-yl)amino)piperidin-1-yl)sulfonyl)benzyl)azetidin-3-yl)-3-methyl-2-oxo-2,3-dihydro-1H-benzo[d]imidazol-1-yl)piperidine-2,6-dione] | 135 | 297 |  |
| O=C1CCC(N2C(=O)c3cc(F)c(N4C5CCC4CN(Cc4cccc(S(=O)(=O)N6CCC(Nc7ncc8ccc(=O)n(C9CCCC9)c8n7)CC6)c4)C5)cc3C2=O)C(=O)N1 (centres unmarked) [Compound 47, 5-(3-(3-((4-((8-cyclopentyl-7-oxo-7,8-dihydro-pyrido[2,3-d]pyrimidin-2-yl)amino)piperidin-1-yl)sulfonyl)benzyl)-3,8-diazabicyclo[3.2.1]octan-8-yl)-2-(2,6-dioxopiperidin-3-yl)-6-fluoro-isoindoline-1,3-dione] | 4030 | 590 |  |
| O=C1CCC(N2C(=O)c3cc(F)c(N4CC5CCC(C4)N5Cc4cccc(S(=O)(=O)N5CCC(Nc6ncc7ccc(=O)n(C8CCCC8)c7n6)CC5)c4)cc3C2=O)C(=O)N1 (centres unmarked) [Compound 49, 5-(8-(3-((4-((8-cyclopentyl-7-oxo-7,8-dihydro-pyrido[2,3-d]pyrimidin-2-yl)amino)piperidin-1-yl)sulfonyl)benzyl)-3,8-diazabicyclo[3.2.1]octan-3-yl)-2-(2,6-dioxopiperidin-3-yl)-6-fluoroi-soindoline-1,3-dione] | 836 | 272 |  |
| O=C1CCC(N2C(=O)c3ccc(CN4CC(Oc5ccc(S(=O)(=O)N6CCC(Nc7ncc8ccc(=O)n(C9CCCC9)c8n7)CC6)cc5)C4)cc3C2=O)C(=O)N1 (centres unmarked) [compound 8, 5-((3-(4-((4-((8-cyclopentyl-7-oxo-7,8-dihydro-pyrido[2,3-d]pyrimidin-2-yl)amino)piperidin-1-yl)sulfonyl)phenoxy)azetidin-1-yl)methyl)-2-(2,6-dioxopiperidin-3-yl)isoindoline-1,3-dione] | 438 | 257 |  |
| Cn1c(=O)n(C2CCC(=O)NC2=O)c2cccc(C3CCN(C4CCN(S(=O)(=O)N5CCC(Nc6ncc7ccc(=O)n(C8CCCC8)c7n6)CC5)CC4)CC3)c21 (centres unmarked) [Compound 31, 3-(4-(1′-((4-((8-cyclopentyl-7-oxo-7,8-dihydro-pyrido[2,3-d]pyrimidin-2-yl)amino)piperidin-1-yl)sulfonyl)-[1,4′-bipiperidin]-4-yl)-3-methyl-2-oxo-2,3-dihydro-1H-benzo[d]imidazol-1-yl)piperidine-2,6-dione] | 294 | 64 |  |
